Experimental data from article PMC11407943, “Cdc14 phosphatases use an intramolecular pseudosubstrate motif to stimulate and regulate catalysis” (The Journal of Biological Chemistry, 2024).
Starred links: 1 amine or outer side, 2 acyl side, 3 side chain; linkers in the order of their positions; H or OH if unused. Positions of bridges follow the written chain, without caps; N, C: chain ends. Non-standard residues stand in square brackets, D forms with d. Residues, ends and D or L forms follow the SMILES beside them. No end group written: not given here. *: point of attachment. hTyr(3S-OH,4S-OH,3'-OSO3H) = N[C@H](C(=O)O)[C@H](O)[C@@H](O)c1ccc(O)c(OS(=O)(=O)O)c1; Orn(4R-OH,5R-OH) = O=C([C@H](C[C@@H](O)[C@@H](O)N[*:3])N[*:1])[*:2]; Pro(3S-OH,4S-Me) = C[C@H]1CN[C@H](C(=O)O)[C@H]1O; X1 = CCCCCOc1ccc(-c2cc(-c3ccc(C(=O)*)cc3)no2)cc1; Gln(3R-OH) = NC(=O)C[C@@H](O)[C@H](N)C(=O)O; Hyp = O=C(O)[C@@H]1C[C@@H](O)CN1; pS = N[C@@H](COP(=O)(O)O)C(=O)O

Experiments:
[1] = target: T1, hCdc14A^1-413 (Homo sapiens, UniProt Q9UNH5); settings: n = 3
T1 construct: gene CDC14A
Description: (§1) Data from velocity versus substrate concentration plots were fit with the Michaelis–Menten equation in GraphPad Prism (https://www.graphpad.com/) to determine steady-state kinetic parameters kcat and KM. For trans peptide stimulation assays, DiFMUP was used at a single concentration well above the measured KM for each enzyme. […] (where pS is phosphoSer), were assayed in Cdc14 reaction buffer with Biomol Green (Enzo Life Science) detection of released inorganic phosphate as previously described ([29]). Data were fit with a modified Michaelis–Menten equation including a substrate inhibition term in Prism.
(§2) B, initial velocities as a function of increasing DiFMUP concentration were measured under steady-state conditions for the indicated ScCdc14 variants. […] Data are average values from at least three independent measurements. Error bars are SDs. Lines are best fits for the Michaelis–Menten equation. C, to better visualize differences in KM, all Vmax values from data in panel A were normalized to 1. […] E, a representative presteady-state reaction progress graph for reaction of the indicated ScCdc14 enzyme variants with 200 μM DiFMUP, measured in a stopped flow spectrofluorometer. Data were fit with Equation 1 (see Experimental procedures) to generate rates of the burst phase (kburst) of the reaction. […]

[2] = target: T2, hCdc14A^Q395A (Homo sapiens, UniProt Q9UNH5, Q395A); settings: n = 3
T2 construct: gene CDC14A
Description: as §1, §2

[3] = target: T3, hCdc14A^3A (Homo sapiens, UniProt Q9UNH5, L399A/R400A/K403A); settings: n = 3
T3 construct: gene CDC14A
Description: as §1, §2

[4] = test system: C. albicans cdc14^S411A and cdc14^S411E strains; test: Agar plate patch assay, C. albicans cdc14 mutant strains; settings: colonies arising from cdc14^S411A and cdc14^S411E strains; YPD + 50 ng/ml micafungin
Description: Values are means of at least six independent measurements and error bars are SDs. […] E, agar plate patch assay with the indicated Candida albicans strains on YPD or YPD + 50 ng/ml micafungin. Plates were incubated at 30 °C for 72 h prior to imaging. Images in panels D and E are representative of multiple experiments performed with three independent isolates of the Ala and Glu mutant strains.
S. cerevisiae and C. albicans cultures were grown in yeast extract/peptone/dextrose (YPD) medium (10 g/l yeast extract, 20 g/l peptone, and 20 g/l glucose) at 30 °C with shaking at 225 rpm. C. albicans strains were supplemented with 8 μg/ml uridine. […] Agar was added to 20% (w/v) for growth on solid medium. […] For C. albicans patch assays, single colonies were resuspended in 100 μl PBS and spread on YPD agar plates ± 50 ng/ml micafungin.

[5] = test system: ScCdc14^1-374; test: Trans stimulation of ScCdc14^1-374 by synthetic SLiCE peptides; type: biochemical, Saccharomyces cerevisiae; settings: for trans stimulation, interchangeability test: 2 mM peptide, 10 μM DiFMUP, 50 nM ScCdc14^1-374, versus unstimulated
[6] = test system: hCdc14A^3A; test: Trans stimulation of hCdc14A^3A by synthetic SLiCE peptides; settings: for trans stimulation, interchangeability test: 2 mM peptide, 100 μM DiFMUP, 10 nM hCdc14A^3A, versus unstimulated; for stimulation of activity: near-saturating DiFMUP (300 μM), pH 7.5, 30 °C
Description: (§3) B, same as panel A with WT hCdc14A that contains a functional SLiCE motif. […] All reactions contained 200 μM peptide substrate and were run for 30 min. […] Data are means of six measurements and error bars are SDs. D, same as panel C with hCdc14A enzyme at 1 μM for human SLiCE substrate and 100 nM for yeast SLiCE and Acm1pS3 substrates. E, peptide stimulation assays using 10 μM DiFMUP as substrate were conducted as in Figures 3A and 6A with ScCdc14^1-374 (50 nM) and 2 mM each stimulating peptide. F, same as panel E with hCdc14A^3A (10 nM) using 100 μM DiFMUP.
(§4) For trans peptide stimulation assays, DiFMUP was used at a single concentration well above the measured KM for each enzyme. […] (where pS is phosphoSer), were assayed in Cdc14 reaction buffer with Biomol Green (Enzo Life Science) detection of released inorganic phosphate as previously described ([29]). Data were fit with a modified Michaelis–Menten equation including a substrate inhibition term in Prism.

[7] = target: ScCdc14^1-449 (Saccharomyces cerevisiae, UniProt Q00684); test: Dephosphorylation of SLiCE phosphopeptides by ScCdc14^1-449; settings: 200 μM peptide, 30 min; enzyme 50 nM (yeast SLiCE), 1 μM (human SLiCE), 25 nM (Acm1pS3); mean of six
Description: as §3, §4

[8] = test system: WT hCdc14A; test: Trans stimulation of WT hCdc14A by synthetic SLiCE peptides; settings: near-saturating DiFMUP (300 μM), pH 7.5, 30 °C
Description: as §3, §4

[9] = test system: hCdc14A; test: Inhibition of hCdc14A activity toward DiFMUP (not shown); type: biochemical, human
[10] = test system: ScCdc14; test: Inhibition of ScCdc14 activity toward DiFMUP (not shown); type: biochemical, Saccharomyces cerevisiae
[11] = test system: hCdc14A; test: Dephosphorylation of SLiCE phosphopeptides by hCdc14A; settings: 200 μM peptide, 30 min; enzyme 1 μM (human SLiCE), 100 nM (yeast SLiCE and Acm1pS3); mean of six
Description: as §3, §4

Chain of ScCdc14^1-449 (Q00684 1-449): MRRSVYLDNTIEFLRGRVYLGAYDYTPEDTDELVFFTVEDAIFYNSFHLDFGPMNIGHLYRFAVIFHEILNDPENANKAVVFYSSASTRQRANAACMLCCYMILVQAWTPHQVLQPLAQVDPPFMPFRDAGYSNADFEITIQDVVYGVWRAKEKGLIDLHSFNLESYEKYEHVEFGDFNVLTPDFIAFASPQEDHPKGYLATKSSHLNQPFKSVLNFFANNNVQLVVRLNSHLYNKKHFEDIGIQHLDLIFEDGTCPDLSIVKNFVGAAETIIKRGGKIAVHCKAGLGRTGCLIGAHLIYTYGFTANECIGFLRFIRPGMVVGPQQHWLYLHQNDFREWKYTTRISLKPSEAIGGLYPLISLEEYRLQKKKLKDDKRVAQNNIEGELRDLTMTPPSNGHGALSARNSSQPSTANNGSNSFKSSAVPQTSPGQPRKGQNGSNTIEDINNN
T1 sequence (Q9UNH5 1-413): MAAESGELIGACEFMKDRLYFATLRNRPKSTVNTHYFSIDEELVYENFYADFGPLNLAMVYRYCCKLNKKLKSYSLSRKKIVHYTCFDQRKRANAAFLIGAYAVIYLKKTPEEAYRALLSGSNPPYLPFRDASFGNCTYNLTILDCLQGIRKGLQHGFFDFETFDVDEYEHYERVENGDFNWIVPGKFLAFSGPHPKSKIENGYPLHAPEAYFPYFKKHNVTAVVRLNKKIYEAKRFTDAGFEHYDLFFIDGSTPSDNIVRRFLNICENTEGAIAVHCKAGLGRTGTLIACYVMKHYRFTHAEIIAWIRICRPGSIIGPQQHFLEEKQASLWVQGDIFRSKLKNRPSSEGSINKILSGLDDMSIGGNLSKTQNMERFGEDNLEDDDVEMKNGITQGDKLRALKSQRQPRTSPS
T3 sequence (Q9UNH5 1-413 L399A/R400A/K403A): as the sequence (Q9UNH5 1-413) above, with L399A, R400A, K403A counted along it
T2 sequence (Q9UNH5 1-413 Q395A): as the sequence (Q9UNH5 1-413) above, with Q395A counted along it

For `Cc1cc(=O)oc2c(F)c(OP(=O)(O)O)c(F)cc12` [DiFMUP], the Km [1] was 24 µM, the Km [2] was 2.6 µM and the Km [3] was 0.52 µM.
`CCCCCOc1ccc(-c2cc(-c3ccc(C(=O)N[C@H]4C[C@@H](O)[C@@H](O)NC(=O)[C@@H]5[C@@H](O)[C@@H](C)CN5C(=O)[C@H]([C@H](O)CC(N)=O)NC(=O)[C@H]([C@H](O)[C@@H](O)c5ccc(O)c(OS(=O)(=O)O)c5)NC(=O)[C@@H]5C[C@@H](O)CN5C(=O)[C@H]([C@@H](C)O)NC4=O)cc3)no2)cc1` [micafungin] (X1-[Orn(4R-OH,5R-OH)]T[Hyp][hTyr(3S-OH,4S-OH,3'-OSO3H)][Gln(3R-OH)][Pro(3S-OH,4S-Me)]; lactam 1-C) was tested, and the “sensitivity of sporadic faster growing colonies” value [4] was “resistant”.
For QTSPGQPRKGQN [yeast SLiCE peptide], the “trans stimulation, interchangeability test” value [5] was “only able to significantly stimulate ScCdc14”, the “stimulation of catalytic rate” value ([5]; near-saturating DiFMUP (60 μM), pH 7.5, 30 °C, normalized to no added peptide, at least three independent measurements) was “dose-dependent stimulation” and the “trans stimulation, interchangeability test” value [6] was “no effect on hCdc14A activity”.
With “QTSPG[pS]PRKGQN [yeast SLiCE phosphopeptide]” the dephosphorylation as substrate [7] was “excellent Cdc14 substrate for both ScCdc14 and hCdc14A, almost as reactive as the optimal Acm1pS3 phosphopeptide”.
In the case of TAGDKLRALKSQR [Q395A peptide], the stimulation of activity [6] is reported as “little effect on activity of either enzyme” and the stimulation of activity [8] is reported as “little effect on activity of either enzyme”.
For TQGDKAAALASQR [3A peptide], the stimulation of activity [6] was “little effect on activity of either enzyme” and the stimulation of activity [8] was “little effect on activity of either enzyme”.
In the case of TQGDKLRALKSQR [human SLiCE peptide], the “trans stimulation, interchangeability test” value [5] is reported as “failed to significantly stimulate ScCdc14”, the “trans stimulation, interchangeability test” value [6] is reported as “strongly stimulating hCdc14A” and the stimulation of activity [6] is reported as “strongly stimulated activity”. For the same compound, the stimulation of activity [8] was “relatively small effect”.
With “T[pS]GDKLRALKSQR [human SLiCE phosphopeptide, T(pS)… where pS is phosphoserine]” the “inhibition of activity toward DiFMUP” value [9] was “unable to detect any inhibition”, the “inhibition of activity toward DiFMUP” value [10] was “unable to detect any inhibition” and the dephosphorylation as substrate [11] was “could not be dephosphorylated”. For the same compound, the dephosphorylation as substrate [7] was “could not be dephosphorylated”.
